The source of these data is patent US8518989B2, “Prodrugs of short-chain fatty acids and treatment methods” (Georgia Health Sciences University Research Institute, Inc., priority 2005, dated 2013).

The test system of one experiment is SW480. Conditions: SW480 cells; cited from earlier work.
Experiment [1] concerns the target T1, human SLC5A8 (Homo sapiens, UniProt Q8N695, F251V/V193I).
T1 construct: We amplified the coding region of SLC5A8 mRNA by RT-PCR using human intestinal mRNA as the template; expressed in transfected cells; host or cells: Xenopus laevis oocytes, 50 ng capped cRNA from the pGH19 construct
T1 sequence (Q8N695 1-610 V193I/F251V): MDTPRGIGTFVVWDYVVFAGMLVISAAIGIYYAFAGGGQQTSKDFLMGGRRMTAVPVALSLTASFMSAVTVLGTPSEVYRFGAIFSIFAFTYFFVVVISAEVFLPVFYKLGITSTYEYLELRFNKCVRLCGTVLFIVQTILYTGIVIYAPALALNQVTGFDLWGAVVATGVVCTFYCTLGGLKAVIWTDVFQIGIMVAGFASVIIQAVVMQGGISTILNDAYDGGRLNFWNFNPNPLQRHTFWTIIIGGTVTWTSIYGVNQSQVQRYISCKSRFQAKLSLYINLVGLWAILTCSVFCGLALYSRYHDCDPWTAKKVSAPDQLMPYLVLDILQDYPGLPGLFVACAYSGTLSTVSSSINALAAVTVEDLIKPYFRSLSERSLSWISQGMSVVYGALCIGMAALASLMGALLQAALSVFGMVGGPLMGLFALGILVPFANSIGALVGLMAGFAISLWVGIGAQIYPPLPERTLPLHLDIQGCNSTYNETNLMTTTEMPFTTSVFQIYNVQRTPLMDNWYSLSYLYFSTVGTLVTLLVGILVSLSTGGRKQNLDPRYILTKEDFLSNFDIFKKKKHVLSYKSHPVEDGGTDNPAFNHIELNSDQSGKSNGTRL
The experiment is described as follows: Two-microelectrode voltage clamp of substrate-induced currents in SLC5A8-expressing oocytes. It is filed as cell-based. As for the experimental part: (§1) The amplified human SLC5A8 cDNA was expressed heterologously in Xenopus oocytes by cRNA injection. Capped cRNA from SLC5A8 cDNA was synthesized using the mMESSAGE mMACHINE kit (Ambion Inc., Austin, Tex.). Mature oocytes (stage 1V or V) from Xenopus laevis were injected with 50 ng cRNA. Uninjected oocytes served as controls. The oocytes were used for uptake and electrophysiological studies 3-6 days after cRNA injection. Uptake of radiolabeled substrates in uninjected and cRNA-injected oocytes was determined as described previously (Fei, Y. J., et al., (1995) Biochemistry 34, 8744-8751).
(§2) Eight oocytes were used for each uptake measurement. Electrophysiological studies were performed by the two-microelectrode voltage clamp method (11. Wang, H., Fei, et al., (2000) Am. J. Physiol. 278:C1019-C1030; Inoue, K, et al. (2004) Biochem. J. 378:949-957).
Oocytes were perfused with a NaCl-containing buffer (100 mM NaCl, 2 mM KCl, 1 mM MgCl2, 1 mM CaCl2, 3 mM Hepes, 3 mM Mes, and 3 mM Tris, pH 7.5), followed by the same buffer containing different fatty acids. The membrane potential was clamped at −50 mV. The differences between the steady-state currents measured in the presence and absence of substrates were considered as the substrate-induced currents. To investigate the current-membrane potential (I—V) relationship, step changes in membrane potential were applied, each for a duration of 100 ms in 20-mV increments. The kinetic parameter K0.5 (i.e. the substrate concentration necessary for the induction of half-maxima) current) was calculated by fitting the values of the substrate-induced currents to Michaelis-Menten equation. The Na^+-activation kinetics was analyzed by measuring the substrate-specific currents in the presence of increasing concentrations of Na^+. The data were analyzed by the Hill equation to determine the Hill coefficient (h; the number of Na^+ ions involved in the activation process). The kinetic parameters were determined using the computer program Sigma Plot, version 6.0 (SPSS, Inc., Chicago, Ill.). Electrophysiological measurements of substrate-induced currents were repeated at least four times with separate oocytes. The data are presented as means±S.E. of these replicates.
The charge-to substrate transfer ratio was determined for propionate in four different oocytes as described previously (Wang, H., et al. (2000) Am. J. Physiol. 278:C1019-C1030 12. Inoue, K., Fei, Y. J., Zhuang, L., Gopal, E., Miyauchi, S., and Ganapathy, V. (2004) Biochem. J. 378:949-957). The oocytes were perfused with 25 μM propionate (unlabeled plus radiolabeled propionate), and inward currents were monitored over a period of 8-10 min. At the end of the experiment, the amount of propionate transported into the oocytes was calculated by measuring the radioactivity associated with the oocytes. The area within the curve describing the relationship between the time and inward current was integrated to calculate the charge transferred into the oocyte during incubation with propionate. The values for substrate transfer and charge transfer were used to determine the charge to substrate transfer ratio.

The target of experiment [2] is T2, rat ATB^0,+ (Rattus norvegicus, UniProt Q334I2).
T2 sequence (Q334I2 1-640): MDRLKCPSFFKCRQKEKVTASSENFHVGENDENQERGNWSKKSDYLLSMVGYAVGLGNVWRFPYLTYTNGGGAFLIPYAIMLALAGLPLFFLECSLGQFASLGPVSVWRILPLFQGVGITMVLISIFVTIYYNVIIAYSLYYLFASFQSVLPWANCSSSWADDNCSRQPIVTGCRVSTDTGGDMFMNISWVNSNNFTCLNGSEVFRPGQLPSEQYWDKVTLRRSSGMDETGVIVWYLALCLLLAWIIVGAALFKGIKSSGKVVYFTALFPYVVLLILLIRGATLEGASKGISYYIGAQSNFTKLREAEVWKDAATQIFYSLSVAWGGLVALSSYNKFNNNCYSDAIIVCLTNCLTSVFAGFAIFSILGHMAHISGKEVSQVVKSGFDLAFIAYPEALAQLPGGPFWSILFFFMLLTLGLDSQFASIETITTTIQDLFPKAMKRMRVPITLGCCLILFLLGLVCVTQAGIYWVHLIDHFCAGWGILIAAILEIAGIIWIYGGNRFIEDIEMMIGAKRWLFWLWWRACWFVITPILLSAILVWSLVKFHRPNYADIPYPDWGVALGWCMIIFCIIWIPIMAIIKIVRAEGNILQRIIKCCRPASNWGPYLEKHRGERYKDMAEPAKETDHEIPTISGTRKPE
The experiment is described as follows: Substrate-induced inward currents in Xenopus oocytes expressing rat ATB0,+ (voltage clamp). Format: cell-based. As to conditions: for Inward currents induced in ATB0,+-expressing oocytes (in words): 5 mM. As for the experimental part: Experiments with HRPE cells were repeated at least three times with three independent transfections and transport measurements made in duplicate in each experiment. Electrophysiological measurements of substrate-induced currents were repeated at least three times with separate oocytes. The data are presented as means±S.E.M. of these replicates. The kinetic parameters, Michaelis constant (Kt) and maximal velocity (Vmax) were calculated by fitting the ATB^0,+-specific transport data to the Michaelis-Menten equation describing a single saturable transport system. Na^+ and Cl^−-activation kinetics were analyzed by fitting the ATB^0,+-specific transport data to the Hill equation for the determination of K0.5 values for Na^+ and Cl^− (concentration of Na^+ and Cl^− necessary for half-maximal activation) and the Hill coefficient (nH; the number of Na^+ or Cl^− ions involved in the activation process). The kinetics parameters were first determined by non-linear regression methods and subsequently confirmed by linear regression methods using the commercially-available computer program SigmaPlot, version 6.0 (SPSS Inc., Chicago, Ill., US).
Therefore, it was necessary to determine whether or not the α-carboxyl esters of neutral amino acids are transportable substrates for ATB^0,+. For this purpose, we used the X. laevis oocyte expression system. Cloned rat ATB^0,+ was functionally expressed in oocytes by injection of corresponding cRNA, and the transport of substrates via the transporter was monitored by inward currents when the oocytes were exposed to putative substrates under voltage-clamp conditions.

The target in experiment [3] is T1, human SLC5A8. The experiment is described as follows: Uptake of radiolabeled short-chain fatty acids in Xenopus oocytes injected with SLC5A8 cRNA. The arrangement: Uptake, uninjected oocytes / Uptake, cRNA-injected oocytes: unit not given here. As to conditions: 1 h incubation. It is filed as cell-based. As for the experimental part:
as §1, §2
Uptake of short-chain fatty acids in uninjected oocytes and in oocytes injected with SLC5A8 cRNA was measured with 1 h incubation. Concentration of substrates (labeled plus unlabeled) varied in the range of 50-500 μM depending on the specific radioactivity of the substrates. Eight oocytes were used for each uptake measurement. Data represent means±SE.

Experiment [4] has as its target T2, rat ATB^0,+. The experiment is described as follows: Inhibition of ATB0,+-mediated 3H-glycine uptake in HRPE cells expressing cloned rat ATB0,+. Format: cell-based. Conditions: for Kt of ATB0,+-mediated glycine transport in the presence of inhibitor / Vmax of ATB0,+-mediated glycine transport in the presence of inhibitor: 5 mM inhibitor; for Kt of ATB0,+-mediated glycine transport in the presence of inhibitor / Vmax of ATB0,+-mediated glycine transport in the presence of inhibitor / Inhibition of ATB0,+-mediated glycine transport (in words): HRPE cells; for Inhibition of ATB0,+-mediated glycine transport (in words): 5 mM.

As for “EGF: growth factor used as mitogenic stimulus in SW480 cells”, in the experiment on SW480, the Cell proliferation was 27% and the “Increase of Na+-dependent arginine transport” value is given as 66%.

On to `CCCCCCCC(=O)O` [octanoate], for which, on human SLC5A8 [1] (5 mM, -50 mV), the “Relative magnitude of substrate-induced currents” value is recorded as “lowest”.

Take `N[C@@H](CO)C(=O)O` [L-serine]: at rat ATB^0,+ [2] (voltage clamp), the “Inward currents induced in ATB0,+-expressing oocytes (in words)” value (“Inward currents induced” for short) is recorded as “induced marked inward currents”.

With `C[C@H](O)C(=O)O` [L-lactate], the Inward current induced on human SLC5A8 [1] (5 mM, -50 mV, taken as 100%) is 489±94 nA. Also, the “K0.5 for SLC5A8” value on human SLC5A8 [1] (Na+ 100 mM, four oocytes) was 235 ± 24 µM. Besides, the “Fold increase of uptake (cRNA-injected over uninjected)” value at human SLC5A8 [3] is recorded as 44.7 fold. Further, the “Uptake, cRNA-injected oocytes” value on human SLC5A8 [3] (SLC5A8 cRNA-injected oocytes) stood at 0.402 ± 0.026. Also, the “Uptake, uninjected oocytes” value at human SLC5A8 [3] (uninjected control oocytes) stood at 0.009 ± 0.001.

As a reminder, the IC50 is the concentration that inhibits the measured activity by half. On to `CCCC(=O)OC[C@H](N)C(=O)O` [O-butyryl-L-serine, O-Butyryl-L-serine], for which, on rat ATB^0,+ [2] (2 mM substrate, Cl- 100 mM), the “Hill coefficient for Na+” value was found to be 1.74±0.23 and the “K0.5 for Na+” value came out at 5.02 ± 0.25 mM. At rat ATB^0,+ [2] (2 mM substrate, Na+ 100 mM), the “Hill coefficient for Cl-” value is given as 1.33±0.02 and the “K0.5 for Cl-” value is 6.28 ± 0.33 mM. Also, at rat ATB^0,+ [2] (voltage clamp), the “Inward currents induced” value is “induced marked inward currents”. Further, at rat ATB^0,+ [4], the IC50 was 118 ± 8 µM, the “Kt of ATB0,+-mediated glycine transport in the presence of inhibitor” value turned out to be 102 ± 17 µM, the “Vmax of ATB0,+-mediated glycine transport in the presence of inhibitor” value was 47 ± 5 nmol/10^6 cells/30 minutes and the “Inhibition of ATB0,+-mediated glycine transport (in words)” value is given as “inhibited glycine transport significantly”.

As to `CCCCC(=O)O` [pentanoate], the “Relative magnitude of substrate-induced currents” value at human SLC5A8 [1] (5 mM, -50 mV) was “intermediate”.

In the case of `CCC(=O)OC[C@H](N)C(=O)O` [O-propionyl-L-serine, O-Propionyl-L-Serine], on rat ATB^0,+ [2] (voltage clamp), the “Inward currents induced” value was “induced marked inward currents”. Further, at rat ATB^0,+ [2] (ATB0,+-expressing oocytes, voltage clamp), the “K0.5 (substrate concentration for half-maximal current)” value is 305 ± 31 µM. For the same compound, at rat ATB^0,+ [4], the IC50 amounted to 332 ± 59 µM, the “Kt of ATB0,+-mediated glycine transport in the presence of inhibitor” value came out at 132 ± 37 µM, the “Vmax of ATB0,+-mediated glycine transport in the presence of inhibitor” value is listed as 61 ± 13 nmol/10^6 cells/30 minutes and the “Inhibition of ATB0,+-mediated glycine transport (in words)” value is “inhibited glycine transport significantly”.
